The record followed here is the supplement of paper PMC10883282.

± gives the standard deviation of the averaged measurements.

In this assay the test system is SW872. Nature of the assay: relative viability vs DMSO control (72 h) (fraction); higher = more viable cells. Summed up:
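Sarcoma cell lines went into 384-well plates at densities chosen to reach 80–90% confluence. After 24 h, each well received 2.5 µl of serially diluted compound, with source plates running from 10 mM to 0.0002 mM, and the plates were kept 72 h at 37 °C, 5% CO2, alongside 0.1% DMSO vehicle and a 5 µM positive control. Relative viability was derived from ATPLite readings as percent growth and averaged over up to triplicate wells. The data were then rescaled so that 1 stands for full and 0 for none.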

As for `Nc1cc(C(F)(F)F)c(-c2cc(N3CCOCC3)nc(N3CCOCC3)n2)cn1` [Buparlisib], the relative viability was 0.994 ± 0.037 (0.00017 µM); 0.96 ± 0.046 (0.00051 µM); 0.995 ± 0.031 (0.00152 µM); 0.958 ± 0.019 (0.00457 µM); 0.964 ± 0.025 (0.01372 µM); 0.946 ± 0.055 (0.04115 µM). In addition, the relative viability was 0.901 ± 0.016 (0.1235 µM); 0.765 ± 0.035 (0.3704 µM); 0.543 ± 0.021 (1.111 µM); 0.249 ± 0.014 (3.333 µM); 0.158 ± 0.0092 (10 µM).

In turn, `Cn1cc(-c2cc3c(N4CCN(c5ncc([C@@](C)(N)c6ccc(F)cc6)cn5)CC4)ncnn3c2)cn1` [Avapritinib] came in with a relative viability (0.00017 µM) of 0.913 ± 0.047; a relative viability (0.00051 µM) of 0.95 ± 0.022; a relative viability (0.00152 µM) of 0.965 ± 0.041; a relative viability (0.00457 µM) of 0.939 ± 0.026; a relative viability (0.01372 µM) of 0.972 ± 0.036; a relative viability (0.04115 µM) of 0.941 ± 0.035. For the same molecule, the relative viability was found to be 0.953 ± 0.032 (0.1235 µM); 0.886 ± 0.038 (0.3704 µM); 0.846 ± 0.029 (1.111 µM); 0.766 ± 0.038 (3.333 µM); 0.67 ± 0.028 (10 µM).

As to `C=CC(=O)N1CCC([C@@H]2CCNc3c(C(N)=O)c(-c4ccc(Oc5ccccc5)cc4)nn32)CC1` [Zanubrutinib], the relative viability turned out to be 1.01 ± 0.032 (0.00017 µM); 1.03 ± 0.028 (0.00051 µM); 0.996 ± 0.038 (0.00152 µM); 1.01 ± 0.029 (0.00457 µM); 0.9666 ± 0.0096 (0.01372 µM); 0.954 ± 0.046 (0.04115 µM). Further, the relative viability runs as follows: (0.1235 µM) 0.883 ± 0.066; (0.3704 µM) 0.923 ± 0.026; (1.111 µM) 0.912 ± 0.034; (3.333 µM) 0.929 ± 0.029; (10 µM) 0.844 ± 0.022.

For `CCCS(=O)(=O)Nc1ccc(F)c(C(=O)c2c[nH]c3ncc(-c4ccc(Cl)cc4)cc23)c1F` [Vemurafenib], the relative viability is, setting by setting: (0.00017 µM) 1.05 ± 0.096; (0.00051 µM) 1.07 ± 0.099; (0.00152 µM) 1.08 ± 0.074; (0.00457 µM) 1.07 ± 0.067; (0.01372 µM) 1.07 ± 0.08; (0.04115 µM) 1.02 ± 0.033. The relative viability by setting is: (0.1235 µM) 0.863 ± 0.059; (0.3704 µM) 0.706 ± 0.063; (1.111 µM) 0.642 ± 0.058; (3.333 µM) 0.528 ± 0.034; (10 µM) 0.342 ± 0.015.

`COc1cc2c(Oc3ccc4[nH]c(C)cc4c3F)ncnc2cc1OCCCN1CCCC1` [Cediranib]: the relative viability came to 1.04 ± 0.024 (0.00017 µM); 1.05 ± 0.039 (0.00051 µM); 1.06 ± 0.042 (0.00152 µM); 1.05 ± 0.016 (0.00457 µM); 1.063 ± 0.0043 (0.01372 µM); 1.04 ± 0.035 (0.04115 µM). Besides, the relative viability is 1.06 ± 0.027 (0.1235 µM); 1.03 ± 0.032 (0.3704 µM); 0.982 ± 0.022 (1.111 µM); 1.05 ± 0.021 (3.333 µM); 1.026 ± 0.002 (10 µM).

As to `CC[C@H](Nc1ncnc2[nH]cnc12)c1nc2cccc(F)c2c(=O)n1-c1ccccc1` [Idelalisib], the relative viability is, setting by setting: (0.00017 µM) 1.09 ± 0.073; (0.00051 µM) 1.13 ± 0.052; (0.00152 µM) 1.1 ± 0.034; (0.00457 µM) 1.1 ± 0.046; (0.01372 µM) 1.11 ± 0.052; (0.04115 µM) 1.08 ± 0.055. Further, the relative viability turned out to be 1.07 ± 0.066 (0.1235 µM); 1.04 ± 0.087 (0.3704 µM); 0.945 ± 0.043 (1.111 µM); 0.876 ± 0.051 (3.333 µM); 0.746 ± 0.036 (10 µM).

Turning to `Cc1cc(Nc2ncnc3ccc(NC4=NC(C)(C)CO4)cc23)ccc1Oc1ccn2ncnc2c1` [Tucatinib], the relative viability stood at 1.07 ± 0.017 (0.00017 µM); 1.08 ± 0.04 (0.00051 µM); 1.08 ± 0.016 (0.00152 µM); 1.09 ± 0.037 (0.00457 µM); 1.07 ± 0.051 (0.01372 µM); 1.08 ± 0.011 (0.04115 µM). The relative viability was 1.08 ± 0.017 (0.1235 µM); 1.04 ± 0.035 (0.3704 µM); 1.06 ± 0.04 (1.111 µM); 1.03 ± 0.045 (3.333 µM); 0.994 ± 0.038 (10 µM).

`N#CC[C@H](C1CCCC1)n1cc(-c2ncnc3[nH]ccc23)cn1` [Ruxolitinib]: the relative viability by setting is: (0.00017 µM) 1.02 ± 0.032; (0.00051 µM) 1.048 ± 0.0078; (0.00152 µM) 1.052 ± 0.009; (0.00457 µM) 1.01 ± 0.014; (0.01372 µM) 0.9983 ± 0.0075; (0.04115 µM) 0.998 ± 0.038. Further, the relative viability runs as follows: (0.1235 µM) 0.974 ± 0.046; (0.3704 µM) 0.954 ± 0.059; (1.111 µM) 0.914 ± 0.075; (3.333 µM) 0.886 ± 0.041; (10 µM) 0.729 ± 0.024.

`Cc1ccc(F)c(NC(=O)Nc2ccc(-c3cccc4[nH]nc(N)c34)cc2)c1` [Linifanib]: the relative viability is 1.07 ± 0.042 (0.00017 µM); 1.06 ± 0.048 (0.00051 µM); 1.07 ± 0.028 (0.00152 µM); 1.02 ± 0.027 (0.00457 µM); 1.012 ± 0.0025 (0.01372 µM); 1.01 ± 0.015 (0.04115 µM). Also, the relative viability reads like this: (0.1235 µM) 1.01 ± 0.053; (0.3704 µM) 0.991 ± 0.022; (1.111 µM) 1.02 ± 0.033; (3.333 µM) 1.05 ± 0.049; (10 µM) 1.03 ± 0.076.

Consider `Cc1nc(NC(=O)N2CCC[C@H]2C(N)=O)sc1-c1ccnc(C(C)(C)C(F)(F)F)c1` [Alpelisib], for which the relative viability is, setting by setting: (0.00017 µM) 1.04 ± 0.055; (0.00051 µM) 1.04 ± 0.046; (0.00152 µM) 1.03 ± 0.052; (0.00457 µM) 1 ± 0.062; (0.01372 µM) 0.965 ± 0.068; (0.04115 µM) 0.938 ± 0.077. Further, the relative viability reads like this: (0.1235 µM) 0.835 ± 0.039; (0.3704 µM) 0.778 ± 0.062; (1.111 µM) 0.698 ± 0.085; (3.333 µM) 0.565 ± 0.035; (10 µM) 0.398 ± 0.024.
